Tests used:
Experiment in all cases: relative viability (nuclei count vs DMSO), 5 days (fraction); higher = more cells survive
IU1-47 + Lapatinib = compound: CC1=CC(=C(N1C2=CC=C(C=C2)Cl)C)C(=O)CN3CCCCC3 [IU1-47] + CS(=O)(=O)CCNCc1ccc(-c2ccc3ncnc(Nc4ccc(OCc5cccc(F)c5)c(Cl)c4)c3c2)o1 [Lapatinib] (partner 2 µM)
Summary of the method: (§1)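 Relative viability divides the nuclei count in treated wells by that in vehicle wells. Lung cancer cell lines were seeded in 1536-well plates, dosed by pin tool the next day, and fixed and stained after 5 days in one step with final 0.05% Triton X-100, 1% formaldehyde and 1 ug/ml Hoechst. Dosing was a single drug or a fixed anchor-drug dose plus five library-drug doses (not always all listed) in √10 steps, and values are medians of duplicate plates imaged at 4×.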

FG-4592 + Trametinib = compound: Cc1nc(C(=O)NCC(=O)O)c(O)c2ccc(Oc3ccccc3)cc12 [FG-4592] + CC(=O)Nc1cccc(-n2c(=O)n(C3CC3)c(=O)c3c(Nc4ccc(I)cc4F)n(C)c(=O)c(C)c32)c1 [Trametinib] (partner 0.02 µM)
Summary of the method: as §1

IU1-47 + Linsitinib = compound: CC1=CC(=C(N1C2=CC=C(C=C2)Cl)C)C(=O)CN3CCCCC3 [IU1-47] + C[C@]1(O)C[C@@H](c2nc(-c3ccc4ccc(-c5ccccc5)nc4c3)c3c(N)nccn32)C1 [Linsitinib] (partner 1 µM)
Summary of the method: as §1

FG-4592 + Vorinostat = compound: Cc1nc(C(=O)NCC(=O)O)c(O)c2ccc(Oc3ccccc3)cc12 [FG-4592] + O=C(CCCCCCC(=O)Nc1ccccc1)NO [Vorinostat] (partner 1 µM)
Summary of the method: as §1

Cell Line: UMC-11
- relative viability (IU1-47 + Lapatinib; first compound 0.08 µM): 0.887
- relative viability (IU1-47 + Lapatinib; first compound 0.253 µM): 0.877
- relative viability (IU1-47 + Lapatinib; first compound 0.8 µM): 1.03
- relative viability (IU1-47 + Lapatinib; first compound 2.53 µM): 1.24
- relative viability (IU1-47 + Lapatinib; first compound 8 µM): 0.876
- relative viability (FG-4592 + Trametinib; first compound 0.08 µM): 0.626
- relative viability (FG-4592 + Trametinib; first compound 0.253 µM): 0.697
- relative viability (FG-4592 + Trametinib; first compound 0.8 µM): 0.504
- relative viability (FG-4592 + Trametinib; first compound 2.53 µM): 0.528
- relative viability (FG-4592 + Trametinib; first compound 8 µM): 0.452
- relative viability (IU1-47 + Linsitinib; first compound 0.08 µM): 0.996
- relative viability (IU1-47 + Linsitinib; first compound 0.253 µM): 0.978
- relative viability (IU1-47 + Linsitinib; first compound 0.8 µM): 1.12
- relative viability (IU1-47 + Linsitinib; first compound 2.53 µM): 1.07
- relative viability (IU1-47 + Linsitinib; first compound 8 µM): 0.952
- relative viability (FG-4592 + Vorinostat; first compound 0.08 µM): 0.363
- relative viability (FG-4592 + Vorinostat; first compound 0.253 µM): 0.333
- relative viability (FG-4592 + Vorinostat; first compound 0.8 µM): 0.361
- relative viability (FG-4592 + Vorinostat; first compound 2.53 µM): 0.511
- relative viability (FG-4592 + Vorinostat; first compound 8 µM): 0.332

From the supplement of paper PMC10307832
